Consider 12 molecules from ChEMBL document CHEMBL1201862, “PubChem BioAssay data set” (2004).

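1) Cells in 96-well plates. 2) Compound, 48 h, 5 concentrations. 3) Linear interpolation between surrounding doses. 4) Unreached endpoint = highest concentration. Here, GI50 denotes the concentration required for 50% inhibition of growth.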 Calls of active or inactive are those of the source. Rule as the data show it: active = GI50 up to about 1.1 µM and inactive = higher.

Some test systems named below: M14; SK-MEL-5; SW-620; MDA-MB-231; SF-539; MOLT-4; SNB-19; HL-60; CCRF-CEM; OVCAR-5; EKVX; SK-MEL-2; T47D; A549; NCI-H23; UACC-62; SNB-75; SR; MDA-N.
What all share (test): NCI tumour cell line growth inhibition, 48 h

With `CCCCc1ccc(Nc2nc(S)c3[nH]cnc3n2)cc1`, the GI50 in the assay on M14 was 24.2 µM (inactive); in the assay with SK-MEL-5, 12.5 µM (inactive); in the assay with SW-620, 15.4 µM (inactive); in the assay with MDA-MB-231, 28.9 µM (inactive); in the assay on SF-539, 20.3 µM (inactive); with MOLT-4, 1.43 µM (inactive). Moreover, the GI50 was 22.8 µM (inactive) with SNB-19; 27.9 µM (inactive) in the assay on HL-60; 21.1 µM (inactive) with CCRF-CEM; 17.2 µM (inactive) in the assay on OVCAR-5; > 10 µM (inactive) with EKVX; 17 µM (inactive) with SK-MEL-2. Also, the GI50 in the assay with T47D is 15.6 µM (inactive); in the assay with A549 it was 36.8 µM (inactive); in the assay on NCI-H23, 18.7 µM (inactive); in the assay on UACC-62, 18.5 µM (inactive).

With `S=c1sc2c(s1)SCc1cccc(n1)CSc1sc(=S)sc1SCc1cccc(n1)CS2`, the GI50 in the assay with M14, with SK-MEL-5, in the assay with SW-620, in the assay with MDA-MB-231, in the assay on SF-539 and in the assay with MOLT-4 was > 100 µM (inactive) each time. The GI50 with SNB-75, with SNB-19, with HL-60, with CCRF-CEM, with OVCAR-5 and in the assay with EKVX was > 100 µM (inactive) each time. Moreover, the GI50 with SK-MEL-2, in the assay with T47D, in the assay on A549, with NCI-H23, in the assay on UACC-62 and in the assay with SR was > 100 µM (inactive) throughout.

`C=C/C(C)=C\CC1[C@](C)(O)CC[C@H]2C(C)(C)C(O)CC[C@]12C` (some centres not stated): the GI50 in the assay with M14 was > 100 µM (inactive); in the assay on MDA-N, > 100 µM (inactive); in the assay on SK-MEL-5, 84.1 µM (inactive); in the assay on SW-620, > 100 µM (inactive); in the assay with MDA-MB-231, > 100 µM (inactive); in the assay with SF-539 it was > 100 µM (inactive). Also, the GI50 was 33.8 µM (inactive) in the assay on MOLT-4; > 100 µM (inactive) with SNB-75; > 100 µM (inactive) with SNB-19; 17.7 µM (inactive) with HL-60; 27.5 µM (inactive) in the assay on CCRF-CEM; > 100 µM (inactive) with OVCAR-5. Further, the GI50 in the assay on EKVX is > 100 µM (inactive); in the assay on SK-MEL-2 it was > 100 µM (inactive); in the assay with A549, > 100 µM (inactive); in the assay with NCI-H23 it was 55.8 µM (inactive); with UACC-62 it was > 100 µM (inactive); in the assay on SR, 40.8 µM (inactive).

On to `C=CC(C)(C)n1cc(C2=C3OC(=O)C(c4cn(C(C)(C)C=C)c5ccccc45)=C3OC2=O)c2ccccc21`, for which the GI50 in the assay on M14, with MDA-N, in the assay on SK-MEL-5, in the assay on SW-620, in the assay with MDA-MB-231 and with SF-539 was > 100 µM (inactive) in each case. Besides, the GI50 with MOLT-4, in the assay on SNB-75, in the assay on SNB-19, with HL-60, in the assay on CCRF-CEM and with OVCAR-5 was > 100 µM (inactive) throughout. The GI50 in the assay with EKVX, with SK-MEL-2, with A549, in the assay on NCI-H23 and in the assay with SR was > 100 µM (inactive) in each case.

For `CCOC(=O)c1ccc(-c2ccc(Cl)cc2)[nH]1`, the GI50 in the assay on M14 is > 10 µM (inactive); in the assay on MDA-N, 5.45 µM (inactive); in the assay on SK-MEL-5, > 10 µM (inactive); in the assay with SF-539, > 10 µM (inactive); in the assay with MOLT-4, > 10 µM (inactive); in the assay with SNB-75, > 10 µM (inactive). For the same molecule, the GI50 was > 10 µM (inactive) in the assay on SNB-19; > 10 µM (inactive) in the assay on HL-60; > 10 µM (inactive) in the assay on CCRF-CEM; > 10 µM (inactive) in the assay on OVCAR-5; 2.28 µM (inactive) with EKVX; > 10 µM (inactive) with SK-MEL-2. Also, the GI50 in the assay on A549, with NCI-H23, in the assay on UACC-62 and with SR was > 10 µM (inactive) in each case.

As to `CSC1=N[C@H](c2ccccc2)CS1`, the GI50 in the assay with M14, in the assay on MDA-N, with SK-MEL-5, in the assay with SW-620, with SF-539 and in the assay on MOLT-4 was > 100 µM (inactive) throughout. The GI50 in the assay with SNB-75 is 2.8 µM (inactive); in the assay on SNB-19, > 100 µM (inactive); in the assay with CCRF-CEM it was > 100 µM (inactive); with OVCAR-5, > 100 µM (inactive); in the assay on EKVX it was > 100 µM (inactive); with SK-MEL-2 it was > 100 µM (inactive). Besides, the GI50 with T47D, with A549, with NCI-H23 and in the assay with UACC-62 was > 100 µM (inactive) each time.

Regarding `COC(=O)CCC1=C(CC(=O)OC)C(C)(OC)N/C1=N/C(=O)OCc1ccccc1` (configuration not stated), the GI50 in the assay on M14, in the assay with SK-MEL-5, in the assay with SW-620, with MDA-MB-231, in the assay with SF-539 and in the assay on MOLT-4 was > 100 µM (inactive) throughout. For the same molecule, the GI50 with SNB-75, with SNB-19, with CCRF-CEM, in the assay on OVCAR-5, in the assay on EKVX and with SK-MEL-2 was > 100 µM (inactive) each time. The GI50 in the assay on T47D, in the assay with A549, in the assay with NCI-H23, in the assay on UACC-62 and in the assay on SR was > 100 µM (inactive) each time.

Turning to `Cc1ccccc1S(=O)(=O)Nn1cnc2ccc(S(=O)(=O)Nc3ccc(Cl)cc3)cc2c1=O`, the GI50 is 65.9 µM (inactive) with M14; 53.1 µM (inactive) in the assay on MDA-N; > 100 µM (inactive) in the assay with SW-620; > 100 µM (inactive) in the assay with MDA-MB-231; > 100 µM (inactive) with SF-539; > 100 µM (inactive) with MOLT-4. Further, the GI50 is > 100 µM (inactive) in the assay with SNB-75; > 100 µM (inactive) in the assay with SNB-19; > 100 µM (inactive) in the assay with HL-60; > 100 µM (inactive) with CCRF-CEM; > 100 µM (inactive) in the assay on OVCAR-5; 35.2 µM (inactive) with EKVX. For the same molecule, the GI50 was 16.6 µM (inactive) with SK-MEL-2; > 100 µM (inactive) with A549; 60.4 µM (inactive) in the assay on NCI-H23; 27.5 µM (inactive) in the assay on UACC-62; > 100 µM (inactive) in the assay with SR.

Take `CSC1(C)CC2C(CC1N1CCOCC1)C2(C)C` (configuration not stated): the GI50 in the assay with M14, in the assay with SK-MEL-5, with SF-539, in the assay with MOLT-4, in the assay on SNB-75 and in the assay on HL-60 was > 100 µM (inactive) each time. Besides, the GI50 in the assay with CCRF-CEM, in the assay with OVCAR-5, with SK-MEL-2, in the assay with A549 and in the assay with NCI-H23 was > 100 µM (inactive) throughout.

As for `C=CCNC1=C2C[C@@H](C)C[C@@H](OC)[C@H](OC(=O)CN)[C@H](C)/C=C(\C)[C@@H](OC(N)=O)[C@H](OC)/C=C\C=C(/C)C(=O)NC(=CC1=O)C2=O`, the GI50 with M14 is 0.371 µM (active); in the assay on MDA-N it was 0.223 µM (active); in the assay with SK-MEL-5 it was 0.476 µM (active); with SW-620, 0.183 µM (active); in the assay with MDA-MB-231, 3.71 µM (inactive); with SF-539, 0.883 µM (active). Also, the GI50 is 1.21 µM (inactive) with MOLT-4; 1.7 µM (inactive) in the assay with SNB-75; 5.4 µM (inactive) with SNB-19; 1.69 µM (inactive) in the assay with HL-60; 1.27 µM (inactive) with CCRF-CEM; 6.25 µM (inactive) with OVCAR-5. Moreover, the GI50 in the assay with EKVX was 5.77 µM (inactive); in the assay on SK-MEL-2, 0.453 µM (active); in the assay on A549, 0.359 µM (active); in the assay on NCI-H23, 0.48 µM (active); in the assay on UACC-62, 0.381 µM (active); with SR, 0.134 µM (active).

`Cc1ccc(C(=O)Nc2ccc(S(=O)(=O)O)c3cc(S(=O)(=O)O)cc(S(=O)(=O)O)c23)cc1NC(=O)c1cccc(N)c1`: the GI50 in the assay with M14, with SK-MEL-5, in the assay with SW-620, in the assay with MDA-MB-231, in the assay with SF-539 and in the assay on MOLT-4 was > 100 µM (inactive) in each case. Also, the GI50 with SNB-75, in the assay on SNB-19, in the assay with HL-60, in the assay on CCRF-CEM, in the assay with OVCAR-5 and in the assay with EKVX was > 100 µM (inactive) each time. In addition, the GI50 with SK-MEL-2 was 73.8 µM (inactive); in the assay on T47D, > 100 µM (inactive); in the assay on A549, > 100 µM (inactive); in the assay with NCI-H23, > 100 µM (inactive); with UACC-62, > 100 µM (inactive); in the assay on SR, > 100 µM (inactive).

Consider `CCOC(=O)c1nc2ccccc2nc1NCc1ccc(OC)cc1`, for which the GI50 is > 100 µM (inactive) with SK-MEL-5; > 100 µM (inactive) in the assay with SW-620; 99.8 µM (inactive) in the assay with MDA-MB-231; > 100 µM (inactive) in the assay on SF-539; > 100 µM (inactive) in the assay on MOLT-4; 48.8 µM (inactive) in the assay on SNB-75. In addition, the GI50 in the assay with HL-60 is > 100 µM (inactive); in the assay with CCRF-CEM it was > 100 µM (inactive); with OVCAR-5, > 100 µM (inactive); with EKVX, > 100 µM (inactive); in the assay with T47D it was 80.9 µM (inactive); in the assay on A549 it was > 100 µM (inactive). In addition, the GI50 in the assay with NCI-H23 was > 100 µM (inactive); in the assay on UACC-62, 84.1 µM (inactive); in the assay with SR, > 100 µM (inactive).
